Patent US9452985B2, “Tau imaging probe” (GE Healthcare Limited, priority 2010, dated 2016)
Where a name gives a salt, the structure may show the parent alone.

system: neurofibrillary tangles; assay: Staining test on brain section of Alzheimer's disease patients; format: binding, human; settings: 100 μM solution in 50% ethanol, 10 minutes, fluorescence microscope
Source text: The procedure of staining test on the compounds of the present invention on the brain section of Alzheimer's disease patients is described below:
(1) We used the brain specimens of the temporal lobe or hippocampus from patients who were definitely diagnosed as having Alzheimer's disease pathology. The specimens were obtained from Choju Medical Institute, Fukushimura Hospital, our collaborating research institute, and the consent for use for research purposes was obtained from the patients' bereaved family (Fukushimura Hospital, Ethics Committee Approval No. 20).
(2) The paraffin-embedded brain tissue was sliced to 6 or 8 μm thickness, extended on a slide glass, and dried. The paraffinized brain section was deparaffinized by washing with xylene for 10 minutes×2, 100% ethanol for 5 minutes×2, 90% ethanol for 5 minutes, and running water for 10 minutes in this order.
(3) As a pretreatment for staining with the compounds of the present invention, the treatment to remove autofluorescence with lipofuscin was performed. First, the paraffinized brain section was immersed in 0.25% KMnO4 solution for 20 minutes. It was washed with PBS for 2 minutes twice, immersed in a 0.1% K2S2O5/oxalic acid solution for approximately 5 minutes, and further washed with PBS for 2 minutes 3 times.
(4) From 100 μM solution of the compounds of the present invention dissolved in 50% ethanol, approximately 150 μl was dropped on the section to react for 10 minutes. After being immersed in tap water 5 times, it was mounted with Flour Save Reagent (Calbiochem) and examined with a fluorescence microscope (Nikon, ECLIPSE 80i). The images were taken with a digital camera (Nikon, Dxin1200F or Photometrics, Cool SNAP ES).

Compound | binding to neurofibrillary tangles in the brain section of Alzheimer's disease patients (staining test)
CN(C)c1ccc2ccc(-c3ccc(F)cc3)nc2c1 [THK-5076, 2-(4-fluorophenyl)-7-dimethylaminoquinoline] | bind to neurofibrillary tangles specifically and selectively
CCN(CC)c1ccc(-c2ccc3cccc(OCC(O)CF)c3n2)cc1 (centres unmarked) [THK-5066, 2-(4-diethylaminophenyl)-8-[(3-fluoro-2-hydroxy)propoxy]quinoline] | bind to neurofibrillary tangles specifically and selectively
CN(C)c1ccc(-c2ccc3ccc(OCC(O)CF)cc3n2)cc1 (centres unmarked) [THK-5107, 7-[(3-fluoro-2-hydroxy)propoxy]-2-(4-dimethylaminophenyl)quinoline] | bind to neurofibrillary tangles specifically and selectively
CN(C)c1ccc2nc(-c3ccc(N)c(F)c3)ccc2c1 [THK-5128, 2-(4-amino-3-fluorophenyl)-6-dimethylaminoquinoline] | bind to neurofibrillary tangles specifically and selectively
CN(C)c1ccc(-c2ccc3ccc(OC(CO)CF)cc3n2)cc1 (centres unmarked) [THK-5071, 2-(4-fluoromethyl-2-hydroxyethoxy)-2-(4-dimethylaminophenyl)quinoline] | bind to neurofibrillary tangles specifically and selectively
CCN(CC)c1ccc(-c2ccc3c(OC(CO)CF)cccc3n2)cc1 (centres unmarked) [THK-5064, 2-(4-diethylaminophenyl)-5-(1-fluoromethyl-2-hydroxyethoxy)quinoline] | bind to neurofibrillary tangles specifically and selectively
CN1CCCc2cc(-c3ccc4cc(OCC(O)CF)ccc4n3)ccc21 (centres unmarked) [THK-5153, 6-[(3-fluoro-2-hydroxy)propoxy]-2-(1-methyl-1,2,3,4-tetrahydroquinolin-6-yl)quinoline] | bind to neurofibrillary tangles specifically and selectively
CCN(CC)c1ccc2ccc(-c3ccc(F)nc3)nc2c1 [THK-5097, 7-diethylamino-2-(2-fluoropyrid-5-yl)quinoline] | bind to neurofibrillary tangles specifically and selectively
CN(C)c1ccc2nc(-c3ccc(N(C)C)c(OCC(O)CF)c3)ccc2c1 (centres unmarked) [THK-5156, 2-[3-[(3-fluoro-2-hydroxy)propoxy]-4-(dimethylamino)phenyl]-6-dimethylaminoquinoline] | bind to neurofibrillary tangles specifically and selectively
CNc1ccc(-c2ccc3ccc(OCC(O)CF)cc3n2)cc1 (centres unmarked) [THK-5106, 7-[(3-fluoro-2-hydroxy)propoxy]-2-(4-methylaminophenyl)quinoline] | bind to neurofibrillary tangles specifically and selectively
Nc1cccc2nc(-c3ccc(F)cc3)ccc12 [THK-5079, 5-amino-2-(4-fluorophenyl)quinoline] | bind to neurofibrillary tangles specifically and selectively
CNc1ccc(-c2ccc3ccc(OC(CO)CF)cc3n2)cc1 (centres unmarked) [THK-5077, 7-(1-fluoromethyl-2-hydroxyethoxy)-2-(4-methylaminophenyl)quinoline] | bind to neurofibrillary tangles specifically and selectively
Nc1ccc2nc(-c3ccc(F)cc3)ccc2c1 [THK-5086, 6-amino-2-(4-fluorophenyl)quinoline] | bind to neurofibrillary tangles specifically and selectively
CCN(CC)c1ccc(-c2cc(OCC(O)CF)c3ccccc3n2)cc1 (centres unmarked) [THK-5059, 2-(4-diethylaminophenyl)-4-(3-fluoro-2-hydroxypropoxy)quinoline] | bind to neurofibrillary tangles specifically and selectively
CCN(CC)c1ccc(-c2ccc3ccc(OC(CO)CF)cc3n2)cc1 (centres unmarked) [THK-5058, 2-(4-diethylaminophenyl)-7-(1-fluoromethyl-2-hydroxyethoxy)quinoline] | bind to neurofibrillary tangles specifically and selectively
CCN(CC)c1ccc(-c2ccc3ccc(OCC(O)CF)cc3n2)cc1 (centres unmarked) [THK-5038, 2-(4-diethylaminophenyl)-7-(2-fluoromethyl-2-hydroxyethoxy)quinoline] | bind to neurofibrillary tangles specifically and selectively

Compound | binding to neurofibrillary tangles in the brain section of Alzheimer's disease patients (staining test)
CCN(C)c1ccc(-c2ccc3ccc(OCC(O)CF)cc3n2)cc1 (centres unmarked) [THK-5112, 2-(4-ethylmethylaminophenyl)-7-[(3-fluoro-2-hydroxy)propoxy]quinoline] | bind to neurofibrillary tangles specifically and selectively
CCN(CC)c1ccc2nc(-c3ccc(F)nc3)ccc2c1 [THK-5088, 6-diethylamino-2-(2-fluoropyrid-5-yl)quinoline] | bind to neurofibrillary tangles specifically and selectively
CN(C)c1cccc2ccc(-c3ccc(F)cc3)nc12 [THK-5082, 2-(4-fluorophenyl)-8-dimethylaminoquinoline] | bind to neurofibrillary tangles specifically and selectively
Nc1ccc2nc(-c3ccc(N)c(OCC(O)CF)c3)ccc2c1 (centres unmarked) [THK-5155, 6-amino-2-[4-(amino)-3-[(3-fluoro-2-hydroxy)propoxy]phenyl]quinoline] | bind to neurofibrillary tangles specifically and selectively
CN1CCCc2cc(-c3ccc4cc(OC(C)(C)C(O)CF)ccc4n3)ccc21 (centres unmarked) [THK-5157, 6-[(3-fluoro-2-hydroxy-1,1-dimethyl)propoxy]-2-(1-methyl-1,2,3,4-tetrahydroquinolin-6-yl)quinoline] | bind to neurofibrillary tangles specifically and selectively
Nc1ccc2ccc(-c3ccc(F)cc3)nc2c1 [THK-5075, 7-amino-2-(4-fluorophenyl)quinoline] | bind to neurofibrillary tangles specifically and selectively
CN(C)c1cccc2nc(-c3ccc(F)cc3)ccc12 [THK-5080, 2-(4-fluorophenyl)-5-dimethylaminoquinoline oxalate] | bind to neurofibrillary tangles specifically and selectively
CCNc1cccc2nc(-c3ccc(F)nc3)ccc12 [THK-5091, 5-ethylamino-2-(2-fluoropyrid-5-yl)quinoline] | bind to neurofibrillary tangles specifically and selectively
CN(C)c1ccc2nc(-c3ccc(F)cc3)ccc2c1 [THK-5087, 2-(4-fluorophenyl)-6-dimethylaminoquinoline] | bind to neurofibrillary tangles specifically and selectively
Nc1cccc2ccc(-c3ccc(F)cc3)nc12 [THK-5081, 8-amino-2-(4-fluorophenyl)quinoline] | bind to neurofibrillary tangles specifically and selectively
CNc1ccc(-c2ccc3cc(N(C)C)ccc3n2)cc1OCC(O)CF (centres unmarked) [THK-5164, 2-[3-[(3-fluoro-2-hydroxy)propoxy]-4-(methylamino)phenyl]-6-dimethylamino quinoline] | bind to neurofibrillary tangles specifically and selectively
CN1CCOc2cc(-c3ccc4cc(OCC(O)CF)ccc4n3)cnc21 (centres unmarked) [THK-5136, 6-[(3-fluoro-2-hydroxy)propoxy]-2-(4-methyl-3,4-dihydro-2H-pyrido[3,2-b][1,4]oxazin-7-yl)quinoline] | bind to neurofibrillary tangles specifically and selectively
CCN(CC)c1ccc(-c2nc3ccccc3cc2OC(CO)CF)cc1 (centres unmarked) [THK-5065, 2-(4-diethylaminophenyl)-3-(1-fluoromethyl-2-hydroxyethoxy)quinoline] | bind to neurofibrillary tangles specifically and selectively
CCN(CC)c1cccc2nc(-c3ccc(F)nc3)ccc12 [THK-5092, 5-diethylamino-2-(2-fluoropyrid-5-yl)quinoline] | bind to neurofibrillary tangles specifically and selectively
Nc1ccc(-c2ccc3ccc(OC(CO)CF)cc3n2)cn1 (centres unmarked) [THK-932, 2-(2-aminopyrid-5-yl)-7-(1-fluoromethyl-2-hydroxyethoxy)quinoline] | bind to neurofibrillary tangles specifically and selectively
CCN(CC)c1ccc(-c2ccc3cc(OC(CO)CF)ccc3n2)cc1 (centres unmarked) [THK-5035, 2-(4-diethylaminophenyl)-6-(1-fluoromethyl-2-hydroxy)quinoline] | bind to neurofibrillary tangles specifically and selectively
